Measurements reported in patent US12606773B2, “Ionizable cationic lipids” (Akagera Medicines, Inc., priority 2020, dated 2026).

Legend:
[1] = LNP zeta potential (ZetaSizer Pro); format: physicochemical; conditions: same LNPs; for Zeta Potential mV, pH 5: Table 4, pH 5; for Zeta Potential mV, pH 7: Table 4, pH 7
[2] = mRNA encapsulation efficiency by Ribogreen fluorescent binding dye; format: physicochemical; conditions: same LNPs; for Encapsulation Efficiency (%): Table 4; for % Encapsulation ± SD: Table 3
Experimental: A. mRNA Concentration and Relative Encapsulation Efficiency Determination by Fluorescent Binding Dye
• Materials: Ribogreen reagent (Thermo #11491), 3×96-well plates with lids, PBS, dissociation buffer (PBS with 10% DMSO and 1% (wt/wt) Zwittergent 3-14 (Sigma-Aldrich #693017), mRNA, general pipette tips & repeater pipette tips. • 1. 5 mL of 2 μg/mL mRNA stock were prepared in DPBS or PBS • 2. Diluted standards were prepared as follows in single wells in a 96-well plate (Plate A);
• 3. Using different wells in Plate A, samples were diluted to be within the standard curve, you'll need one well per sample. For example, if the approximate mRNA concentration should be ˜30 ug/mL in the sample, a 20× dilution was performed (Dilution Factor). (20 uL sample added to 380 μL PBS in a well). No lid was used on plate A. Samples were mixed by gentle pipetting up & down.
• 4. Two more plates, plates B & C were used. Using a multichannel pipettor, 60 μL of each standard 2 were pipetted into wells each (duplicate), and sample into 3 wells each (triplicate)
(§1) • 5. The number of wells used on each plate was counted and 4 was added to this number. For plate B, PBS was prepared with Ribogreen diluted 1:100. For example, for 40 wells, 44 was used as the number. 44×60 μL=2.64 mL Ribogreen solution needed, so that would be 2.61 mL PBS with 26.4 μL Ribogreen. • 6. For plate C, 2.61 mL Dissociation buffer and 26.4 uL Ribogreen was pipetted. • 7. Using a repeater pipette set for 60 μL, PBS+RiboGreen was added to each well on plate B and 60 μL Dissociation Buffer+Ribogreen to plate C. Both plates B and C were mixed on an orbital mixer (120 rpm) for 1 min. Plate B was placed in the dark for 15 min. Plate C was incubated at 37° C. in the dark for 10 min, followed by 5 min at RT. • 8. Both plates were read one after the other, using Ex. 465, Em. 530 nm • 9. Using the standard curve, the slope and intercept were calculated and by extrapolation the mRNA concentrations of the samples on plate B & C were calculated (average and std.dev) • 10. Percent encapsulation efficiency (% EE) by [mRNA] plate B/[mRNA] plate C×100 was calculated • 11. Total [mRNA] by taking [mRNA] plate C×dilution factor was calculated. B. LNP Particle Size • 1. […] C. LNP Zeta Potential • 1.

[3] = LNP particle size and polydispersity (ZetaSizer); format: physicochemical; conditions: for Particle Size (nm): mCherry mRNA LNP, 50 mol % ICL, N/P 5, DSPC 10, cholesterol 38.5, PEG-DMG 1.5 mol %; for Particle Size (nm) Post-Freeze/Thaw / Polydispersity Index PDI: same LNPs; for Particle Size (nm) Post-Freeze/Thaw: Table 4, post freeze/thaw
Experimental: as §1

[4] = Accelerated oxidation with H2O2/Fe(III)Cl, main lipid peak by UHPLC-CAD; format: physicochemical; conditions: for % of parent lipid peak at time 0, 24 h / % of parent lipid peak at time 0, 48 h / % of parent lipid peak at time 0, 72 h: 1% H2O2, 100 μM Fe(III)Cl, 37° C.; for stability under accelerated oxidation with hydrogen peroxide: compared to counterparts with a single methylene separating the two olefins
Experimental: Individual lipid stocks (10 mM) were prepared in ethanol and stored at −20° C. […] Liposomal formulations based on AKG-UO-1 and 0-11769 ionizable cationic lipids (Table 5) were prepared by combining lipid mixtures of desired composition in 1 mL ethanol with 3 mL 6.25 mM sodium acetate, pH 5.0 at 6 mL/min on a NanoAssemblr (Precision Nanosystems). 3.6 mL of the mixture was retained, while the initial 0.35 mL of the mixture and final 0.05 mL were discarded. Ethanol was removed by buffer exchange into PBS, pH 7.4 by concentrating each liposome preparation using an Aminon-Ultra 4 centrifugal concentrator at 500 g for 10 min at 4° C. and diluting back to the original volume with PBS. This cycle was repeated multiple times until the ethanol concentration was <1%. Finally, liposomes were sterile filtered through 0.2 μm PES (Nalgene) syringe filters and size measured by a ZetaSizer (Malvern).
Aliquots of the liposomal formulations were stored at −80° C. and thawed before the experiment. A combined stock in water of 10% H2O2 (Sigma-Aldrich, cat #H1009) and 1 mM of Fe(III)Cl (Sigma-Aldrich, cat #372870) was freshly prepared prior to the treatment. To make 1% final concentration of H2O2 and 100 μM Fe(III)Cl, 10 μl of 10% H2O2/1 mM Fe(III)Cl stock was added to 90 μl of both liposomal formulations and individual lipids The liposomes and individual lipids were incubated with H2O2/Fe(III)Cl at 37° C. and then 5 μl from each sample was taken at different time points (0, 3, 24, 48 and 72 hours) and dissolved in 90 μl of MeOH for HPLC analysis. Degradation of the main lipid peak was analyzed using Thermo Scientific Vanquish Flex UHPLC occupied with Charged Aerosol Detector (CAD) and Thermo Scientific Accucore™ C18+ UHPLC column (L=50 mm, D=2.1 mm, Particle Size=1.5 μm).
The data are presented as a percentage of the main lipid peak measured at different time points relative to the lipid peak measured at time zero.

MutuDC1940 cells = assay: Transfection efficiency of mCherry mRNA LNPs in murine dendritic cells; format: cell-based; conditions: LNPs 1 μg/mL, 24h
Experimental: A. Cell Propagation, Transfection, Harvesting and Staining Protocol
• 1. MutuDC1940 cells (ABM) were grown according to supplier's instructions in T75 flasks.
When required, they were plated at 180,000 cells/well into 24-well plate one day prior to transfection. • 2. LNPs were added in triplicate to each well at 1 μg/mL in 1 mL media and after 24h the cells were washed once with DPBS (VWR 02-0119-1000). • 3. 0.2 mL of DPBS (plus 5 mM EDTA, pH 7.4) was then added to facilitate detachment. • 4. The cells were placed at 37° C. for 3 min, until detached. • 5. 0.5 ml DPBS added to each well and the liquid transferred to a flow cytometry tube (Falcon 5 mL #352054) • 6. The tube was centrifuged at 1100 rpm for 3-5 min and the liquid poured off • 7. 100 μL of Zombie Violet (Biolegend) (diluted 1:500 in PBS) was added to each tube • 8. The tubes were gently tapped to resuspend cells and placed in the dark for 15 min at RT • 9. To the cells 0.5 mL of (paraformaldehyde 4% in PBS:DPBS 1:1) was added and the cells flicked gently to resuspend and put on ice for 30 min. Another 2 ml PBS was added. • 10. The cells were pelleted as above and resuspended in 0.5 mL DPBS with 5% BSA and placed in the fridge until needed. B. Cell Analysis • 1. Cells suspensions were analyzed by an Attune NxT flow cytometer using the VL1 and YL2 for live/dead and mCherry fluorescence signals respectively. Gating analysis was performed on FloJo software.

SMILES | Zeta Potential mV, pH 5 [1] [mV] | Zeta Potential mV, pH 7 [1] [mV] | Encapsulation Efficiency (%) [2] [%] | Particle Size (nm) ([3]; Table 4) | Particle Size (nm) Post-Freeze/Thaw [3] [nm] | degradation after 48 hours of incubation with hydrogen peroxide [4] | % of parent lipid peak at time 0, 24 h ([4]; ICL lipid suspensions) [%] | % of parent lipid peak at time 0, 48 h ([4]; ICL lipid suspensions) [%] | % of parent lipid peak at time 0, 72 h ([4]; ICL lipid suspensions) [%] | % of parent lipid peak at time 0, 72 h ([4]; Liposome preparations) [%] | % Encapsulation ± SD [2] [%] | Particle Size (nm) ([3]; Table 3) | Polydispersity Index PDI ([3]; Table 3) | stability under accelerated oxidation with hydrogen peroxide [4] | fold higher mCherry expression than KC2 (MutuDC1940 cells; relative to KC2 LNP) [fold] | fold higher mCherry expression than KC3 (MutuDC1940 cells; relative to KC3 LNP) [fold] | fold higher mCherry expression than LNPs incorporating 0-11769 (MutuDC1940 cells; relative to 0-11769 LNP) [fold]
CCCCCCCC/C=C\CCCCCCCC(=O)OC[C@H](CCN(C)C)OC(=O)CCCCCCC/C=C\CCCCCCCC [AKG-DM2-OA] | 19.1 | 2.2 | 64.9 ± 3.4 | 77.6 | 111.5 |  |  |  |  |  |  |  |  |  |  |  | 
CCCCC/C=C\CCCC/C=C\CCCCC(=O)OC[C@H](CCN(CC)CC)OC(=O)CCCC/C=C\CCCC/C=C\CCCCC [AKG-UO1A, (S)-4-(diethylamino)butane-1,2-diyl (6Z,6′Z,12Z,12′Z)-bis(octadeca-6,12-dienoate)] | 28.0 | −0.9 | 77.5 ± 0.9 | 84.4 | 103.2 |  |  |  |  |  |  |  |  |  |  |  | 
CCCCC/C=C\C/C=C\CCCCCCCC(=O)OC[C@H](CCN(C)C)OC(=O)CCCCCCC/C=C\C/C=C\CCCCC [Compound O-11769, reference compound] | 17.1 | 4.1 | 87.5 ± 2.7 | 83.0 | 89.6 | fully degraded | 31 ± 0.9 | 1 ± 0.2 | 0.3 ± 0.1 | 3.9±0.06 |  |  |  |  |  |  | 
CCCCCCCC/C=C\CCCCCCCC(=O)OC[C@H](CN(C)C)OC(=O)CCCCCCC/C=C\CCCCCCCC [DODAP, reference compound] | 10.2 | −0.7 | 83.4 ± 7.7 | 69.8 | 68.2 |  |  |  |  |  |  |  |  |  |  |  | 
CCCCC/C=C\C/C=C\CCCCCCCCC1(CCCCCCCC/C=C\C/C=C\CCCCC)OCC(CCN(C)C)O1 (centres unmarked) [KC2, reference compound] |  |  |  |  |  | fully degraded |  |  | 0 ± 0.0 |  | 68.2 ± 3.7 | 93.7 | 0.01 |  |  |  | 
CCCCC/C=C\CCCC/C=C\CCCCCC1(CCCCC/C=C\CCCC/C=C\CCCCC)OC[C@H](CCN(C)C)O1 [KC2-01, 2-((S)-2,2-di((6Z,12Z)-octadeca-6,12-dien-1-yl)-1,3-dioxolan-4-yl)-N,N-dimethylethan-1-amine] |  |  |  |  |  |  |  |  |  |  | 88.9 ± 1.6 | 70.7 | 0.06 | dramatically superior stability | 4.4 |  | 
CCCCC/C=C\C/C=C\CCCCCCCCC1(CCCCCCCC/C=C\C/C=C\CCCCC)OCC(CCCN(C)C)O1 (centres unmarked) [KC3, reference compound] |  |  |  |  |  | fully degraded |  |  | 0 ± 0.0 |  | 87.0 ± 2.3 | 101.5 | 0.23 |  |  |  | 
CCCCC/C=C\CCCC/C=C\CCCCCC1(CCCCC/C=C\CCCC/C=C\CCCCC)OC[C@H](CCCN(C)C)O1 [KC3-01, 3-((S)-2,2-di((6Z,12Z)-octadeca-6,12-dien-1-yl)-1,3-dioxolan-4-yl)-N,N-dimethylpropan-1-amine] |  |  |  |  |  |  |  |  |  |  | 88.9 ± 2.7 | 91.6 | 0.03 | dramatically superior stability |  | 3.4 | 
CCCCC/C=C\CCCC/C=C\CCCCC(=O)OC[C@H](CCN(C)C)OC(=O)CCCC/C=C\CCCC/C=C\CCCCC [UO-1, (S)-4-(dimethylamino)butane-1,2-diyl (6Z,6′Z,12Z,12′Z)-bis(octadeca-6,12-dienoate)] | 21.9 | 2.3 | 75.4 ± 2.2 | 98.0 | 122.6 |  | 78 ± 0.6 | 74 ± 0.1 | 65 ± 2.5 | 73±0.05 |  |  |  | dramatically superior stability |  |  | 4.2
